Paper PMC4747952, “Development of TASP0410457 (TASP457), a novel dihydroquinolinone derivative as a PET radioligand for central histamine H3 receptors” (EJNMMI Research, 2016)

What was measured:
H3Rs [1] = target: T1, H3Rs (Rattus norvegicus, UniProt Q9QYN8); assay: In vitro autoradiography, rat brain sections; type: binding; settings: 5 nM radioligand
T1 construct: from tissue; host or cells: sagittal rat brain sections
Protocol: Twenty-micrometer-thick sagittal rat and monkey brain sections were incubated in an autoradiography buffer containing 5 nM [^11C]TASP0410457 as described in Additional file 1: Supplemental methods. The binding was also performed in the presence of 10 μM of unlabeled TASP0410457, thioperamide, or ciproxifan for the rat sections and 10 μM of TASP0410457 or ciproxifan for the monkey sections to assess the specific radioligand binding.
(25:75) at a flow rate of 1 mL/min. A representative chromatogram of [11C]TASP0390136 is shown in […]
Twenty-micrometer-thick sagittal rat brain sections were pre-incubated with autoradiography buffer (50 mM Tris containing 120 mM NaCl, 2 mM KCl, 1 mM MgCl2, and 1 mM CaCl2, pH7.4) for 30 min, then incubated in the autoradiography buffer containing 5 nM [11C]TASP0410457 at 25°C for 1 h. The sections were washed two times with ice-cold autoradiography buffer for 5 min, rinsed with ice-cold water for 10 s, and then quickly dried. The radioactivity retained on the sections was determined using a BAS imaging plate and the BAS5000 system (GE Healthcare, Piscataway, NJ). For a blocking study, brain slices were reacted with [11C]TASP0410457 in the presence of […] of TASP0410457, thioperamide, or ciproxifan.
Similarly, autoradiography using […] sagittal rhesus monkey brain sections was conducted. […]

central H3Rs = assay: Receptor occupancy assay, [^11C]TASP0410457-PET, Lassen's plot; type: in vivo, monkey; settings: monkey
Protocol: Occupancy of central H3Rs by ciproxifan, a selective antagonist/inverse agonist, was quantified by [^11C]TASP0410457-PET scans of an anesthetized monkey with arterial blood sampling. […] Receptor occupancy of ciproxifan was determined using Lassen’s plot without any reference regions using the following equation: VT^Baseline−VT^Ciproxifan=OccVT^Baseline−VND where VT^Baseline and VT^Ciproxifan are the regional VT values at baseline and in the ciproxifan challenge, respectively, VND is the non-displaceable distribution volume, and Occ is the occupancy.

H3Rs [2] = target: T2, H3Rs (Macaca mulatta, UniProt Q865E1); assay: PET in conscious rhesus monkey; type: in vivo, rhesus monkey (Macaca mulatta)
T2 construct: from tissue; host or cells: brain of living rhesus monkeys
Protocol: A male rhesus monkey (Macaca mulatta, weighing 6–7 kg) was used for a comparative PET analysis of [^11C]TASP0410457 and [^11C]TASP0434988. PET scans were performed using a high-resolution SHR-7700 animal PET camera (Hamamatsu Photonics, Hamamatsu, Japan). Following transmission scans for attenuation correction using a ^68Ge-^68Ga point source, emission scans were performed on a conscious monkey as described previously, in 3D acquisition mode (frames: 10 s × 12, 30 s × 6, 1 min × 5, 2 min × 5 and 5 min × 14) for 90 min after the intravenous injection of [^11C]TASP0410457 (169–176 MBq) or [^11C]TASP0434988 (173–188 MBq). Briefly, the monkey was immobilized by joining the acrylic cap on the monkey head with the fixation device during PET scans. To assess a homologous competition for the target binding sites, unlabeled TASP0410457 or TASP0434988 was injected intravenously at a dose of 1 mg/kg at 30 s before injection of the corresponding radioligand.
Emission scan images were reconstructed using a 4.0-mm Colsher filter. ROIs were placed on the anterior cingulate cortex, striatum, thalamus, hippocampus, cerebellum, frontal cortex, temporal cortex, occipital cortex, and pons-medulla using PMOD software, with reference to an MRI template as described previously. Tissue TACs were generated as in the rat PET image analysis.

[3] = set-up: method as in K. Kawamura, personal communication, 2015; settings: mice; 30 min after intravenous injection; pilot assays; ref K. Kawamura, personal communication, 2015; cited from earlier work

T2 sequence (Q865E1 1-445): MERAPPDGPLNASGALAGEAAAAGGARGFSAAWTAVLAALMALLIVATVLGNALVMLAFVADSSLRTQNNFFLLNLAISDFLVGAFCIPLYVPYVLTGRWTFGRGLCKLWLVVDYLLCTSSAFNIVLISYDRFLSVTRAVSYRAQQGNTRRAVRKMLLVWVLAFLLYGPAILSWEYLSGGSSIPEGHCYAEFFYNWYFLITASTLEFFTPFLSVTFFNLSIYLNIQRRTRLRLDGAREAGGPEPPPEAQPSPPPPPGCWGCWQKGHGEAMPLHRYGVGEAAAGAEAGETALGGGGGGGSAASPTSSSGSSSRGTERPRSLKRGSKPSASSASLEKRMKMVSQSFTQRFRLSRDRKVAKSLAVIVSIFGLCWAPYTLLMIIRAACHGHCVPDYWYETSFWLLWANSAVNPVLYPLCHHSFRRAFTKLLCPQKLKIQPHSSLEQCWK
T1 sequence (Q9QYN8 whole entry): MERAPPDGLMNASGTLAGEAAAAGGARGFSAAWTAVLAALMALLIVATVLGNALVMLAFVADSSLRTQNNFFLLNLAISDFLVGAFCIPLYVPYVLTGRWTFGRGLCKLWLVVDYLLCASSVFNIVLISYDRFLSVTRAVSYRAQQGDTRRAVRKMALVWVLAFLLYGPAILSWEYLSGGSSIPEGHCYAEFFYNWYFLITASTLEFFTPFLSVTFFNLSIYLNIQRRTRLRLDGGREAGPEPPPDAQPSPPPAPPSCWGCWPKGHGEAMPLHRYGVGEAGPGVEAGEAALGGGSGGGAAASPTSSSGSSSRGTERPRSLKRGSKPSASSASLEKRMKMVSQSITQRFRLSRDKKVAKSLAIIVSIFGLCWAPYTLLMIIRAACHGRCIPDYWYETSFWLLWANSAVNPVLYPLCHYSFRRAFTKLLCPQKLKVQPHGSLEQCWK

Q: Which results are given for `[11CH3]Oc1ccc(N2C(=O)CCc3cc(OC4CCN(C5CCC5)CC4)ccc32)cn1` [[^11C]TASP0410457]?
A: autoradiographic binding in rat brain sections (H3Rs [1]): abundant specific binding in the striatum and neocortex; specific radioligand binding as share of the radioactivity in the striatum (central H3Rs): more than 80%; Non-displaceable distribution volume (central H3Rs; Lassen's plot): 4.0 mL/cm^3; peak SUV in the striatum (H3Rs [2]; another monkey in a conscious condition (additional PET study)): 3.0; time of peak brain uptake after the injection (H3Rs [2]; conscious monkey PET): ≤ 30 min; peak SUV in the striatum (H3Rs [2]; first conscious monkey): 3.4; metabolite share of radioactivity in the brain [3]: approximately 50%
